In general, inhibition refers to the relative decrease from the control value, in per cent.

The values below come from US7713958B2, “Compounds and compositions as protein kinase inhibitors” (IRM LLC, priority 2003, dated 2010).

Common to all, as to type: biochemical
For one test, the target named is KDR (Homo sapiens, UniProt P35968). Kind of test: Kinase inhibition at 10 μM, KDR. Particulars: 10 μM of Compound; read-out: Percentage Inhibition of KDR.
Another test addresses c-Kit (Homo sapiens, UniProt P10721). The experiment in a line: Kinase inhibition at 10 μM, c-Kit. Conditions: 10 μM of Compound; read-out: Percentage Inhibition of c-Kit.
A further test deals with c-src (Homo sapiens, UniProt P12931). The experiment in a line: Kinase inhibition at 10 μM, c-src. Conditions: 10 μM of Compound; read-out: Percentage Inhibition of c-src.
In the next test the target is CDK1 (Homo sapiens, UniProt P06493). Kind of test: Kinase inhibition at 10 μM, CDK1. Conditions: 10 μM of Compound; read-out: Percentage Inhibition of CDK1.
In a further test the target is FGFR-1 (Homo sapiens, UniProt P11362). Kind of test: Kinase inhibition at 10 μM, FGFR-1. Conditions: 10 μM of Compound; read-out: Percentage Inhibition of FGFR-1.
A further test has as its target c-Met (Homo sapiens, UniProt P08581). The experiment in a line: Kinase inhibition at 10 μM, c-Met. Particulars: 10 μM of Compound; read-out: Percentage Inhibition of c-Met.
In a further test the target is c-Abl (Homo sapiens, UniProt P00519). Kind of test: Kinase inhibition at 10 μM, c-Abl. Particulars: 10 μM of Compound; read-out: Percentage Inhibition of c-Abl.
In a further test the target is T1, Flt-3 (Homo sapiens, UniProt P36888).
T1 sequence (P36888 27-993): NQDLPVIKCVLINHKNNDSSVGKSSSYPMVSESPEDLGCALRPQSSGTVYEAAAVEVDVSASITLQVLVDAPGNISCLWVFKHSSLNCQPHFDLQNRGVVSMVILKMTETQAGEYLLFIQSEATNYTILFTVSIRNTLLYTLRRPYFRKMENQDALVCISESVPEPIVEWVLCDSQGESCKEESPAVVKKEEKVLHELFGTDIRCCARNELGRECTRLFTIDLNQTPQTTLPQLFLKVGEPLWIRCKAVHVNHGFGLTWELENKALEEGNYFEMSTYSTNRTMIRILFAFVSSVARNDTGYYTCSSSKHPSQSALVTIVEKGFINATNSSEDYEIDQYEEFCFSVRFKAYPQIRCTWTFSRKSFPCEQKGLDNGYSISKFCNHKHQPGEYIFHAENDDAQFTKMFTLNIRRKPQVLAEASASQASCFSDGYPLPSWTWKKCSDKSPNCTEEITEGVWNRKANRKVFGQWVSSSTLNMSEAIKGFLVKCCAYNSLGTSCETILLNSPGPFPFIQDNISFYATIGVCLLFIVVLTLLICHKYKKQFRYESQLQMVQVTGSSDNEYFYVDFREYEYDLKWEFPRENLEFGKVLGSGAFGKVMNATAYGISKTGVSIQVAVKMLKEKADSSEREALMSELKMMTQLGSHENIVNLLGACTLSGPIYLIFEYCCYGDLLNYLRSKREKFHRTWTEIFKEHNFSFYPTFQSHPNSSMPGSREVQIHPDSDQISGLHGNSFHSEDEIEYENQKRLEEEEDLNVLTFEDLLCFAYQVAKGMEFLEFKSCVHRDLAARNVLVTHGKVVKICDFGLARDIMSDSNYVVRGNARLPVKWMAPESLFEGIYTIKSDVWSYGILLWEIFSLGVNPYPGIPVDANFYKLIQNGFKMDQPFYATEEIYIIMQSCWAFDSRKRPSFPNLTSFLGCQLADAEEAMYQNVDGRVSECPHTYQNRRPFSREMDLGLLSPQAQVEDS
The experiment in a line: Kinase inhibition at 10 μM, Flt-3. Particulars: 10 μM of Compound; read-out: Percentage Inhibition of Flt-3.

In another test the target is IGF-1R (Homo sapiens, UniProt P08069). Kind of test: Kinase inhibition at 10 μM, IGF-1R. Particulars: 10 μM of Compound; read-out: Percentage Inhibition of IGF-1R.
Another test deals with Flt-1 (Homo sapiens, UniProt P17948). The experiment in a line: Kinase inhibition at 10 μM, Flt-1. Conditions: 10 μM of Compound; read-out: Percentage Inhibition of Flt-1.
The next test deals with Tek (Homo sapiens, UniProt Q02763). Kind of test: Kinase inhibition at 10 μM, Tek. Conditions: 10 μM of Compound; read-out: Percentage Inhibition of Tek.
The target of a further test is PDGFR-β (Homo sapiens, UniProt P09619). The experiment in a line: Kinase inhibition at 10 μM, PDGFR-β. Conditions: 10 μM of Compound; read-out: Percentage Inhibition of PDGFR-β.

Sequence of CDK1 (P06493 whole entry, species assumed): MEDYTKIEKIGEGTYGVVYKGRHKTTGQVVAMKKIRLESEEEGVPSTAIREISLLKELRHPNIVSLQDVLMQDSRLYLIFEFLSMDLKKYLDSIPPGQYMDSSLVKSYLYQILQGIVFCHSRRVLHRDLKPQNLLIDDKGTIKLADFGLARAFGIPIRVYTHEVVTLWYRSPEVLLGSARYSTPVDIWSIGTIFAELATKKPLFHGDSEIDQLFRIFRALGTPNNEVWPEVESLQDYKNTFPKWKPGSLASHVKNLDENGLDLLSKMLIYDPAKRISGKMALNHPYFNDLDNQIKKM
Sequence of CDK1 (P14635 whole entry partner, species assumed): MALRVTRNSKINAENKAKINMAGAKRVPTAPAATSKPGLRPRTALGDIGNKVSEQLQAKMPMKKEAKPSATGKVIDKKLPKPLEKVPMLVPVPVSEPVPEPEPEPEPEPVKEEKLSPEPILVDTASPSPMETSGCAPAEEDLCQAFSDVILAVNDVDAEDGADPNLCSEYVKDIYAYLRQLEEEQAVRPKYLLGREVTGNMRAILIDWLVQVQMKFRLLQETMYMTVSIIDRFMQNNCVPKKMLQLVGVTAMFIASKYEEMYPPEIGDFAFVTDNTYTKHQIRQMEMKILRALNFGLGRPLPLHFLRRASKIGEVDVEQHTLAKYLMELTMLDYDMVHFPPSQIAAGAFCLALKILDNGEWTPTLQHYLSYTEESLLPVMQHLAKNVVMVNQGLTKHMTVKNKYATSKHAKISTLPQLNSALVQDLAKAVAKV
Sequence of Tek (Q02763 23-1124, species assumed): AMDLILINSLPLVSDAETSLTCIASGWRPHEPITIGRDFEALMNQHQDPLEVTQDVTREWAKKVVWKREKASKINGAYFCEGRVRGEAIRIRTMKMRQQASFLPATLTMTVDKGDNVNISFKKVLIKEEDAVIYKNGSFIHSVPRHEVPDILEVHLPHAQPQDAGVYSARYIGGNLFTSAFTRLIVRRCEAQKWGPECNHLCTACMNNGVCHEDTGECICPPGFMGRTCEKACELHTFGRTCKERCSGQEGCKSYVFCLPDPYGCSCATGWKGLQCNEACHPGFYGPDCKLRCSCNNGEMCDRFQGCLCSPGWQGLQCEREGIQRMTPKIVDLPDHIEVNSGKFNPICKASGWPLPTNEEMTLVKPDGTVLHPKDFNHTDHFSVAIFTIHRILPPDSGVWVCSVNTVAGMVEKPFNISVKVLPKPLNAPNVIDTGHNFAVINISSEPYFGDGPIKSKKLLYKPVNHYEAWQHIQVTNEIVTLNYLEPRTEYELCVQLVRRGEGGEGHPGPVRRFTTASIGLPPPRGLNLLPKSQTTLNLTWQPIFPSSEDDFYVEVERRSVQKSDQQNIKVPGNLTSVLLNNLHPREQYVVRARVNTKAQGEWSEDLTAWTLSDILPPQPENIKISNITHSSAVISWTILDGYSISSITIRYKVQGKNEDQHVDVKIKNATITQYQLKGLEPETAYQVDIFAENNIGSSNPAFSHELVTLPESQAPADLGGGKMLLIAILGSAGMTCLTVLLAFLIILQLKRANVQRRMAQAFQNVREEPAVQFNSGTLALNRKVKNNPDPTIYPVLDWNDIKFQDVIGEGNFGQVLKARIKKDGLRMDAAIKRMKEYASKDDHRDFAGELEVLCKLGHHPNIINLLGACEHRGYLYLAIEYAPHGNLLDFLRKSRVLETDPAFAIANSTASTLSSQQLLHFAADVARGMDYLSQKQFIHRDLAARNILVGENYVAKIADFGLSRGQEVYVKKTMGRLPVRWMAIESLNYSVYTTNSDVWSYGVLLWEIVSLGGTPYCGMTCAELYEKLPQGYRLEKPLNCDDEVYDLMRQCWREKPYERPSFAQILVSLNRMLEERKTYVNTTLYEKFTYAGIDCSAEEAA
Sequence of c-src (P12931 whole entry, species assumed): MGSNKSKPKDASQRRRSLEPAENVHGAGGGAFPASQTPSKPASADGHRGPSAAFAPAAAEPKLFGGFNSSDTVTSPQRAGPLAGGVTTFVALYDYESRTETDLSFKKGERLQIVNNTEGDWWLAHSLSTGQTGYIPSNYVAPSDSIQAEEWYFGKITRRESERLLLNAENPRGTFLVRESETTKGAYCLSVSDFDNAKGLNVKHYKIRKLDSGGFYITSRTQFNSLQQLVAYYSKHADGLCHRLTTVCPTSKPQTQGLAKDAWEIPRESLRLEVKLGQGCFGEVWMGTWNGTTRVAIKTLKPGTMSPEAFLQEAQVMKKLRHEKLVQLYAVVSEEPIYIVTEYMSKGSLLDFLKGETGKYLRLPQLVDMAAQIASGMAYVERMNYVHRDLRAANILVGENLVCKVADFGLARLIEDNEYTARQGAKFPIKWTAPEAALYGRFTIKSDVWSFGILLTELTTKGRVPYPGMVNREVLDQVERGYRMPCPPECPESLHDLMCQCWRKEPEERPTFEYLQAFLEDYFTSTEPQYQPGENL
Sequence of c-Abl (P00519 whole entry): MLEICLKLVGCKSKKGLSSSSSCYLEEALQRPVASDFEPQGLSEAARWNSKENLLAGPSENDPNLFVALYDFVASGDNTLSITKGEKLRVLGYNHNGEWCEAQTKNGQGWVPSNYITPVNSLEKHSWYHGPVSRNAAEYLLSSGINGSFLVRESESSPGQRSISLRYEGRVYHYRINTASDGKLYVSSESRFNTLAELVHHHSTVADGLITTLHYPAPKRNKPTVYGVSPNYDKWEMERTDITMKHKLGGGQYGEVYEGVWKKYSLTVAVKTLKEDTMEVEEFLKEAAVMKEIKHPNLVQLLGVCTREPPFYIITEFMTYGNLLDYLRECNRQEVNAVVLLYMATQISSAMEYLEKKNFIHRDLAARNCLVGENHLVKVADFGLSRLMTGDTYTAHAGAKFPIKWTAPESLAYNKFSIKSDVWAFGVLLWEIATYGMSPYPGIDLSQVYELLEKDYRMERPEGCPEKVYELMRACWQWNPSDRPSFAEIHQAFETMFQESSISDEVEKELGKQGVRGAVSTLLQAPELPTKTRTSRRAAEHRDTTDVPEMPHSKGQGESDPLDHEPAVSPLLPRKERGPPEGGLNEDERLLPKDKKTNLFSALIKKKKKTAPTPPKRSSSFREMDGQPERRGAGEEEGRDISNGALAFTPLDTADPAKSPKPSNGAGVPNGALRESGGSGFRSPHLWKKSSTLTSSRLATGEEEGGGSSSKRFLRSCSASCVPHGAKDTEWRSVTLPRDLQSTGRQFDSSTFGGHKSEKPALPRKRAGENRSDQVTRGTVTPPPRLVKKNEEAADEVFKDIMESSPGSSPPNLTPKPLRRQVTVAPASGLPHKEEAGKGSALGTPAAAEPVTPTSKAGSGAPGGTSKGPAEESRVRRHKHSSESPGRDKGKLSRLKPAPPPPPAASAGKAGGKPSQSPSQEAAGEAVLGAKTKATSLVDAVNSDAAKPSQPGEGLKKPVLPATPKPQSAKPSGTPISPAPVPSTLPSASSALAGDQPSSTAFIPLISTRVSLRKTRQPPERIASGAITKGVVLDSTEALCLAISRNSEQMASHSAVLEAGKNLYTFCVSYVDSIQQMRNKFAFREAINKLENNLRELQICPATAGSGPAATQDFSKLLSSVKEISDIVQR
Sequence of IGF-1R (P08069 31-1367, species assumed): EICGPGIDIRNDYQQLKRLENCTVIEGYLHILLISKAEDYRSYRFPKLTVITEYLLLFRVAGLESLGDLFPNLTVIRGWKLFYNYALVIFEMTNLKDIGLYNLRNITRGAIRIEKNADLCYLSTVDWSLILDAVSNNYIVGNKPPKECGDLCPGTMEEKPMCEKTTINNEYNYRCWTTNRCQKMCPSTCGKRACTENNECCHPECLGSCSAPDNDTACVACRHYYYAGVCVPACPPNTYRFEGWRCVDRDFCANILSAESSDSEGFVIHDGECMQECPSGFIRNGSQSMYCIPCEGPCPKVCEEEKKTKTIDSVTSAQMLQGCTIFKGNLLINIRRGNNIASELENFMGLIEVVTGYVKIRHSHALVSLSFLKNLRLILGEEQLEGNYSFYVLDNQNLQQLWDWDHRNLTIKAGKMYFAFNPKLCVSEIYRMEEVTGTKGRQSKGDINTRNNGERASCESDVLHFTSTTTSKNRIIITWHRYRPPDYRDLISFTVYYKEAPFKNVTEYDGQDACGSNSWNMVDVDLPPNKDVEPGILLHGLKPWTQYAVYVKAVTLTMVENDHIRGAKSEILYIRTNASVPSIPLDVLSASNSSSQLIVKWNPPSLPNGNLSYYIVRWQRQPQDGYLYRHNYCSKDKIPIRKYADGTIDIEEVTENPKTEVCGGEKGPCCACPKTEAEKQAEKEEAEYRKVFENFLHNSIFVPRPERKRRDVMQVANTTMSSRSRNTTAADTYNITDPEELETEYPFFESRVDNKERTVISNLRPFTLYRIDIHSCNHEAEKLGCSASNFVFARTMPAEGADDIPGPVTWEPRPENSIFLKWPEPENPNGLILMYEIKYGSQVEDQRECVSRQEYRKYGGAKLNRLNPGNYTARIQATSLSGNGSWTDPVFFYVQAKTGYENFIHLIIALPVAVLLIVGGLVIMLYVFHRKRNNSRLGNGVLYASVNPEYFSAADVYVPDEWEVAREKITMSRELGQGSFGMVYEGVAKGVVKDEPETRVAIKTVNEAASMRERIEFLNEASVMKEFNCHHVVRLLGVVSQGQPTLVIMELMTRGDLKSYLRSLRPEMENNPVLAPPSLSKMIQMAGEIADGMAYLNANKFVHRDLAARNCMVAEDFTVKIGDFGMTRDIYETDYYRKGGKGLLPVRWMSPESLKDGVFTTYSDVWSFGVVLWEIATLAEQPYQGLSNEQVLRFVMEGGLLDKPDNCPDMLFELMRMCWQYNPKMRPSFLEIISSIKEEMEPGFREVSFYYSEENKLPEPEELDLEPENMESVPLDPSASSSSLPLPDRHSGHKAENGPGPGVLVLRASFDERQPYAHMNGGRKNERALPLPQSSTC

Turning to `NC1=NC(=O)/C(=C2\CCNC(=O)c3[nH]c4ccc(F)cc4c32)N1` [Compound 12, 5-(2-amino-5-oxo-3,5-dihydro-imidazol-4-ylidene)-7-fluoro-3,4,5,10-tetrahydro-2H-azepino[3,4-b]indol-1-one], the inhibition at 10 µM at KDR was 70%; at c-Kit, 86%; on c-src, 89%; on CDK1, 99%; at FGFR-1, 89%; at c-Met, 74%.
For the compound `O=C1NCC/C(=N\Nc2ccccn2)c2c1[nH]c1ccc(Cl)cc21` [Compound 24, 7-chloro-5-(pyridin-2-yl-hydrazono)-3,4,5,10-tetrahydro-2H-azepino[3,4-b]indol-1-one], the inhibition at 10 µM is 91% at c-Abl; 72% at Flt-3; 82% at IGF-1R; 79% on c-Kit; 85% at Flt-1; 73% at Tek. For the same compound, the inhibition at 10 µM on c-src is 92%; on CDK1 it was 88%.
Regarding `NS(=O)(=O)c1ccc(N/N=C2\CCNC(=O)c3[nH]c4ccc(Cl)cc4c32)cc1` [Compound 31, 4-[N′-(7-chloro-1-oxo-1,3,4,10-tetrahydro-2H-azepino[3,4-b]indol-5-ylidene)-hydrazino]-benzenesulfonamide], on CDK1, the inhibition at 10 µM was found to be 95%.
With `O=C1NCC/C(=N\Nc2cccnc2)c2c1[nH]c1ccc(Cl)cc21` [Compound 33, 7-chloro-5-(pyridin-3-yl-hydrazono)-3,4,5,10-tetrahydro-2H-azepino[3,4-b]indol-1-one], the inhibition at 10 µM worked out at 97% on PDGFR-β, 70% on Tek, 78% at c-src and 97% on CDK1.
For `O=C1NCC/C(=N\Nc2ccccn2)c2c1[nH]c1ccc(F)cc21` [Compound 37, 7-fluoro-5-(pyridin-2-yl-hydrazono)-3,4,5,10-tetrahydro-2H-azepino[3,4-b]indol-1-one], the inhibition at 10 µM on c-Abl is 86%; on Flt-3, 75%; on IGF-1R it was 76%; on Flt-1 it was 79%; at Tek it was 81%; on c-src, 90%. At CDK1, the inhibition at 10 µM was 98%.
